In patent publication US9580430B2, “9H-pyrimido[4,5-B]indoles and related analogs as BET bromodomain inhibitors” (THE REGENTS OF THE UNIVERSITY OF MICHIGAN, priority 2014, dated 2017):

Legend:
recombinant BRD4 BD1 = biological target: T1, recombinant BRD4 BD1 (Homo sapiens, UniProt O60885); test: Competitive fluorescence-polarization (FP) binding assay, BRD4 BD1; settings: competitive FP assay; protein 10 nM, probe […]; read-out: IC50 (nM) BRD4 BD1; note: probe 1.5 nM
T1 construct: for recombinant BRD4 BD1 and BRD4 BD2 proteins
How it was run: (§1)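 FP competition with FAM-labelled probe (ZBA248 or BRD-1F) against preincubated protein/probe complex; BD1 at 10 nM and BD2 at 6 nM final, in 100 mM potassium phosphate pH 6.5, 0.01% Triton X-100. 30 min, room temperature. IC50 by nonlinear regression; Ki also derived, using probe Kd from protein saturation.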

recombinant BRD4 BD2 = biological target: T2, recombinant BRD4 BD2 (Homo sapiens, UniProt O60885); test: Competitive fluorescence-polarization (FP) binding assay, BRD4 BD2; settings: competitive FP assay; protein 6 nM, probe […]; read-out: IC50 (nM) BRD4 BD2; note: probe 1.5 nM
T2 construct: for recombinant BRD4 BD1 and BRD4 BD2 proteins
How it was run: as §1

MOLM-13 = test: Cell growth inhibition, MOLM-13 leukemia cells (CellTiter-Glo); assay type: cell-based; settings: Homo sapiens, MOLM-13, 96 h; 4 days; read-out: IC50 (nM) MOLM-13 Cell Line (CellTiter-Glo assay)
How it was run: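 MOLM-13 leukemia cells treated with compounds; viability read by CellTiter-Glo luminescence after 10-20 min reagent incubation at room temperature. IC50 derived from luminescent signal.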

MDA-MB-436 = test: Cell growth inhibition, MDA-MB-436 breast cancer cells (WST-8); assay type: cell-based; settings: Homo sapiens, MDA-MB-436, 96 h; 4 days; read-out: IC50 (nM) MDA-MB-436 Cell Line (WST assay)
How it was run: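 IC50 was computed from WST-8-based cell counting in MDA-MB-436 cells, with absorbance read at 450 nm.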

Structure (SMILES)	IC50 (recombinant BRD4 BD1) [nM]	IC50 (recombinant BRD4 BD2) [nM]	IC50 (MOLM-13) [nM]	IC50 (MDA-MB-436) [nM]
COc1cc2c(cc1-c1c(C)noc1C)[nH]c1nc(C(C)C)nc(Nc3nn(C)c4ccccc34)c12 [Cpd. No. 18, 7-(3,5-Dimethylisoxazol-4-yl)-2-isopropyl-6-methoxy-N-(1-methyl-1H-indazol-3-yl)-9H-pyrimido[4,5-b]indol-4-amine]	211	1160	86.2	141
COc1cc2c(cc1-c1c(C)noc1C)[nH]c1nc(C)nc(Nc3cc(C)cc(C)c3)c12 [Cpd. No. 237, 7-(3,5-dimethylisoxazol-4-yl)-N-(3,5-dimethylphenyl)-6-methoxy-2-methyl-9H-pyrimido[4,5-b]indol-4-amine]	10	5	41	72
COc1cc2c(cc1-c1c(C)noc1C)[nH]c1nc(C)nc(Nc3cccc(Cl)c3)c12 [Cpd. No. 97, N-(3-chlorophenyl)-7-(3,5-dimethylisoxazol-4-yl)-6-methoxy-2-methyl-9H-pyrimido[4,5-b]indol-4-amine]	34	8	43	180
COc1cc2c(cc1-c1c(C)noc1C)[nH]c1nc(C)nc(Nc3cc(C(C)(C)C)ns3)c12 [Cpd. No. 133, 3-(tert-Butyl)-N-(7-(3,5-dimethylisoxazol-4-yl)-6-methoxy-2-methyl-9H-pyrimido[4,5-b]indol-4-yl)isothiazol-5-amine]	> 1000	> 1000	433	47900
COc1cc2c(cc1-c1c(C)noc1C)[nH]c1nc(C)nc(Nc3cccc(C(F)(F)F)c3)c12 [Cpd. No. 214, 7-(3,5-dimethylisoxazol-4-yl)-6-methoxy-2-methyl-N-(3-(trifluoromethyl)phenyl)-9H-pyrimido[4,5-b]indol-4-amine]	855	348	208	249

Results, then the molecule that gave them:

IC50 (recombinant BRD4 BD1) [nM]	IC50 (recombinant BRD4 BD2) [nM]	IC50 (MOLM-13) [nM]	IC50 (MDA-MB-436) [nM]	Structure (SMILES)
21.5	43.3	45.6	138	COc1cc2c(cc1-c1c(C)noc1C)[nH]c1nc(C)nc(Nc3nn(C)c4ncccc34)c12 [Cpd. No. 10, 7-(3,5-Dimethylisoxazol-4-yl)-6-methoxy-2-methyl-N-(1-methyl-1H-pyrazolo[3,4-b]pyridin-3-yl)-9H-pyrimido[4,5-b]indol-4-amine]
13.7	7.7	26	39.2	CCn1nc(C(F)(F)F)cc1Nc1nc(C)nc2[nH]c3cc(-c4c(C)noc4C)c(OC)cc3c12 [Cpd. No. 146, 7-(3,5-Dimethylisoxazol-4-yl)-N-(1-ethyl-3-(trifluoromethyl)-1H-pyrazol-5-yl)-6-methoxy-2-methyl-9H-pyrimido[4,5-b]indol-4-amine]
119	161	504	1420	COc1cc2c(cc1-c1c(C)noc1C)[nH]c1nc(C)nc(Nc3cn(C)cn3)c12 [Cpd. No. 166, 7-(3,5-dimethylisoxazol-4-yl)-6-methoxy-2-methyl-N-(1-methyl-1H-imidazol-4-yl)-9H-pyrimido[4,5-b]indol-4-amine]
16.6	14.4	29.1	75.1	COc1cc2c(cc1-c1c(C)noc1C)[nH]c1nc(C)nc(Nc3cn(C)nc3C3CC3)c12 [Cpd. No. 195, N-(3-cyclopropyl-1-methyl-1H-pyrazol-4-yl)-7-(3,5-dimethylisoxazol-4-yl)-6-methoxy-2-methyl-9H-pyrimido[4,5-b]indol-4-amine]
240	235	23.9	398	COc1cc2c(cc1-c1c(C)noc1C)[nH]c1nc(C)nc(Nc3nn(C)c4ccncc34)c12 [Cpd. No. 11, 7-(3,5-dimethylisoxazol-4-yl)-6-methoxy-2-methyl-N-(1-methyl-1H-pyrazolo[4,3-c]pyridin-3-yl)-9H-pyrimido[4,5-b]indol-4-amine]
